Measured values taken from ChEMBL document CHEMBL4828735, “Discovery of N-((3S,4S)-4-(3,4-Difluorophenyl)piperidin-3-yl)-2-fluoro-4-(1-methyl-1H-pyrazol-5-yl)benzamide (Hu7691), a Potent and Selective Akt Inhibitor That Enables Decrease of Cutaneous Toxicity” (J Med Chem, 2021).

Experiments:
HaCaT = test: Antiproliferative activity against human HaCaT cells assessed as inhibition of cell growth incubated for 72 hrs by SRB assay; assay type: cell-based
[1] = target: Ribosomal protein S6 kinase beta-1 (Homo sapiens, UniProt P23443); test: Inhibition of P70S6K (unknown origin)
Chain of Ribosomal protein S6 kinase beta-1 (P23443 whole entry): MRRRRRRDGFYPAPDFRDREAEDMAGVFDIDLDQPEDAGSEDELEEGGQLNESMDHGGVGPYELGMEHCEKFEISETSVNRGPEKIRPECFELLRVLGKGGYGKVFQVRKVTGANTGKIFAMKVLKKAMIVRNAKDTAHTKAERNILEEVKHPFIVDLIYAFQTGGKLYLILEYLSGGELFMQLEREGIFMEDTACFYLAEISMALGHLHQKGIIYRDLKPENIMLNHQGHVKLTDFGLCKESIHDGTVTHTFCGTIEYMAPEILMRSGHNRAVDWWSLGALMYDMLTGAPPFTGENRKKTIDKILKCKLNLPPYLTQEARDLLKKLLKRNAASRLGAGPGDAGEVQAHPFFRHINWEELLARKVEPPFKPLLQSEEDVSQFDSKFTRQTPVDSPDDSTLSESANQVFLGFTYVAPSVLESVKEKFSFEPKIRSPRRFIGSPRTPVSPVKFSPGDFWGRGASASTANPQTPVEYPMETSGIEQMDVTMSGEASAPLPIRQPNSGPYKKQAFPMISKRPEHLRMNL

[2] = target: Serine/threonine-protein kinase Sgk1 (Homo sapiens, UniProt O00141); test: Inhibition of SGK (unknown origin)
Chain of Serine/threonine-protein kinase Sgk1 (O00141 whole entry): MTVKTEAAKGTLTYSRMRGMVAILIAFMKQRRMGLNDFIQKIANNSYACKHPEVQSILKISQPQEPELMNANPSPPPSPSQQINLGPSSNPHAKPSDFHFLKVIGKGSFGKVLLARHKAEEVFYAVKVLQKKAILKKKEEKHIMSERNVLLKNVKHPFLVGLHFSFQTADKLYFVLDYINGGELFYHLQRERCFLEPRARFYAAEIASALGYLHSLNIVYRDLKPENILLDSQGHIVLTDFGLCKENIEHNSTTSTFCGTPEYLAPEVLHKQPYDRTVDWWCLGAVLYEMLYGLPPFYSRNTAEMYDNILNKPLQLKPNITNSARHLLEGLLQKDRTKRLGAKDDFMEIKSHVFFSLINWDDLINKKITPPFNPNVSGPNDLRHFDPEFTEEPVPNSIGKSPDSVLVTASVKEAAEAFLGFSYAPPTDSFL

[3] = target: Ribosomal protein S6 kinase alpha-5 (Homo sapiens, UniProt O75582); test: Inhibition of MSK1 (unknown origin)
Chain of Ribosomal protein S6 kinase alpha-5 (O75582 whole entry): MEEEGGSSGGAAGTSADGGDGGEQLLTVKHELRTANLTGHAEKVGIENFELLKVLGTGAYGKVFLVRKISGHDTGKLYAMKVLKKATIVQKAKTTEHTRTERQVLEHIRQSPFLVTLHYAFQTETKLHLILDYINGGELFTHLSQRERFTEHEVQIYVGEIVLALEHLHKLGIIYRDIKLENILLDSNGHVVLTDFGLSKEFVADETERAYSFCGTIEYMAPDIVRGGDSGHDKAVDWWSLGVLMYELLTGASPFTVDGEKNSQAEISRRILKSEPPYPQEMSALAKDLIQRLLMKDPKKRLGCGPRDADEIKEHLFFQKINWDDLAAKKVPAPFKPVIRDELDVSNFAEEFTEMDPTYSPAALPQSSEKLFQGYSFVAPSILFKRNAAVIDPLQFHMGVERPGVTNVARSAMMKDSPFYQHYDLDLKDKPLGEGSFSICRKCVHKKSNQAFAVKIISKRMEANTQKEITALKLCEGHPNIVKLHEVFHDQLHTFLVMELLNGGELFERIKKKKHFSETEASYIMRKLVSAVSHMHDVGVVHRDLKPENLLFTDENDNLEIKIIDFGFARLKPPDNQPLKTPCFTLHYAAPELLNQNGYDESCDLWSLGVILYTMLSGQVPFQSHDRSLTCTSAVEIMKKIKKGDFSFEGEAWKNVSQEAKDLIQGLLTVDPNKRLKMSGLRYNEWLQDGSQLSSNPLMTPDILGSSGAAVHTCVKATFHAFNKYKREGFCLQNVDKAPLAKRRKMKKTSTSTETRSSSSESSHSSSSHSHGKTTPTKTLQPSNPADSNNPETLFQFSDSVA

[4] = target: Tyrosine-protein kinase ABL1 (Homo sapiens, UniProt P00519); test: Inhibition of ABL (unknown origin)
Chain of Tyrosine-protein kinase ABL1 (P00519 whole entry): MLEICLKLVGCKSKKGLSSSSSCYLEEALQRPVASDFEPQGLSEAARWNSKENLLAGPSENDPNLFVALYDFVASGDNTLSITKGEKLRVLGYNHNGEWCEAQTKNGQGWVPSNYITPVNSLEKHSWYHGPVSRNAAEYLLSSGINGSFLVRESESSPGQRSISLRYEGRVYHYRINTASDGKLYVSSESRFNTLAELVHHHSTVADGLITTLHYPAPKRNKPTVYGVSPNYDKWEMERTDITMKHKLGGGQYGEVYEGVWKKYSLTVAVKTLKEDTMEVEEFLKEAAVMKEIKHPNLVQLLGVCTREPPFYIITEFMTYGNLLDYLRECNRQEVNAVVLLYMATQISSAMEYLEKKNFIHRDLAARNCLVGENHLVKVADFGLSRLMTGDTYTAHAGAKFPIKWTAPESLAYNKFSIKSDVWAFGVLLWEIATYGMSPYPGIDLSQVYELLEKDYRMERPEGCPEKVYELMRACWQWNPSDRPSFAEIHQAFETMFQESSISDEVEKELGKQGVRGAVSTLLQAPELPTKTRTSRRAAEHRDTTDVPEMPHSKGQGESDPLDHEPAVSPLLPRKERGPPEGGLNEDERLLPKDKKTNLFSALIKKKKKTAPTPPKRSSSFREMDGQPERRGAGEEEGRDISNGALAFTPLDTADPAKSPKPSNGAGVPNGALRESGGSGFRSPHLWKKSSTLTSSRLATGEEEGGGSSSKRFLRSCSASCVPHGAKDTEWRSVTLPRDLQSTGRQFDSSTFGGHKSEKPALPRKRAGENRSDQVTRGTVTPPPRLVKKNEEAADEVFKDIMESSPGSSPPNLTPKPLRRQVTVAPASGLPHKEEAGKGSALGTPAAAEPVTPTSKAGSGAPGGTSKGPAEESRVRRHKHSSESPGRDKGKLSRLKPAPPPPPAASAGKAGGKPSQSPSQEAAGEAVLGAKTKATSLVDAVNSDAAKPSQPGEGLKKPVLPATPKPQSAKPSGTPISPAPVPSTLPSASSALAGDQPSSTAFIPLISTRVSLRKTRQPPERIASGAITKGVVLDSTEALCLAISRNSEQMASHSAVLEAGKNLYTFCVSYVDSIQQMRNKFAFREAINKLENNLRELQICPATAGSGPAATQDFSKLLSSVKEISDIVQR

[5] = target: Tyrosine-protein kinase JAK2 (Homo sapiens, UniProt O60674); test: Inhibition of JAK2 (unknown origin)
Chain of Tyrosine-protein kinase JAK2 (O60674 whole entry): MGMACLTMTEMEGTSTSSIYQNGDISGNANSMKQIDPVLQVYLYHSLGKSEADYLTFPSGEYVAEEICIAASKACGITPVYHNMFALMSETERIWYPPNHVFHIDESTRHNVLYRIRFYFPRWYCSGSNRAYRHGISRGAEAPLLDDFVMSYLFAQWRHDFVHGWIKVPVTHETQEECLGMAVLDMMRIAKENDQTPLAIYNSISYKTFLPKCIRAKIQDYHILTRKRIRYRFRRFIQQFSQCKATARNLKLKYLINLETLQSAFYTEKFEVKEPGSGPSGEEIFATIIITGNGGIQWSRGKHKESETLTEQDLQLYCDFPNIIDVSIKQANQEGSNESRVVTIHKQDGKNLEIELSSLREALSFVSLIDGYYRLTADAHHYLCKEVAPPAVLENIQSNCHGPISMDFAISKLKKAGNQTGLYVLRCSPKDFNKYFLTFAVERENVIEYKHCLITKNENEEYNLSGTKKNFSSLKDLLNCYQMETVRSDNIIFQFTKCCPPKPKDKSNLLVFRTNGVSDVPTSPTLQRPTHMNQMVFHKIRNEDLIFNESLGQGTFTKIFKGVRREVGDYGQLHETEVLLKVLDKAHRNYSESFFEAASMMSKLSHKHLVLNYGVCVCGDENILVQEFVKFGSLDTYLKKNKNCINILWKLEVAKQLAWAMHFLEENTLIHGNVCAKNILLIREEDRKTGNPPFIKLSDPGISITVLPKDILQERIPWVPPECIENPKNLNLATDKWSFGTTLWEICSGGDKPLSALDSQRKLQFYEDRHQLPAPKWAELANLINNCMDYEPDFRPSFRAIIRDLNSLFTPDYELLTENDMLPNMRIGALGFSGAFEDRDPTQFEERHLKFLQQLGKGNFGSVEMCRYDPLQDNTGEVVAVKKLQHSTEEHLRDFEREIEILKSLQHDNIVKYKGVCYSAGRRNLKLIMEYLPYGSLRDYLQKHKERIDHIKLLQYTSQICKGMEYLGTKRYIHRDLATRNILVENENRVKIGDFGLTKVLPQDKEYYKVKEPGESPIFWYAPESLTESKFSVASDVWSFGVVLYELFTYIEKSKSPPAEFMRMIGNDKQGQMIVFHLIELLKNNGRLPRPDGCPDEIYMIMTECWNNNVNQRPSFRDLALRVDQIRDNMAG

U-87 MG = test: Antiproliferative activity against human U-87MG cells assessed as inhibition of cell growth incubated for 72 hrs by SRB method; assay type: functional, cell-based, U-87MG ATCC
NCI-H1975 = test: Antiproliferative activity against human NCI-H1975 cells assessed as inhibition of cell growth incubated for 72 hrs by SRB method; assay type: functional, cell-based; details: NCI-H1975, 72 h
A549 = test: Antiproliferative activity against human A549 cells assessed as inhibition of cell growth incubated for 72 hrs by SRB method; assay type: functional, cell-based; details: A549, 72 h
HT-29 = test: Antiproliferative activity against human HT-29 cells assessed as inhibition of cell growth incubated for 72 hrs by SRB method; assay type: functional, cell-based; details: HT-29, 72 h
MDA-MB-231 = test: Antiproliferative activity against human MDA-MB-231 cells assessed as inhibition of cell growth incubated for 72 hrs by SRB method; assay type: functional, cell-based; details: MDA-MB-231, 72 h
PC-3 = test: Antiproliferative activity against human PC3 cells assessed as inhibition of cell growth incubated for 72 hrs by SRB method; assay type: functional, cell-based; details: PC-3, 72 h
L02 = test: Antiproliferative activity against human HL7702 cells assessed as inhibition of cell growth incubated for 72 hrs by SRB method; assay type: cell-based; details: L02, 72 h
Cytochrome P450 2C9 = Cytochrome P450 2C9 (Homo sapiens, UniProt P11712); test: Inhibition of CYP2C9 (unknown origin); assay type: ADME
Chain of Cytochrome P450 2C9 (P11712 whole entry): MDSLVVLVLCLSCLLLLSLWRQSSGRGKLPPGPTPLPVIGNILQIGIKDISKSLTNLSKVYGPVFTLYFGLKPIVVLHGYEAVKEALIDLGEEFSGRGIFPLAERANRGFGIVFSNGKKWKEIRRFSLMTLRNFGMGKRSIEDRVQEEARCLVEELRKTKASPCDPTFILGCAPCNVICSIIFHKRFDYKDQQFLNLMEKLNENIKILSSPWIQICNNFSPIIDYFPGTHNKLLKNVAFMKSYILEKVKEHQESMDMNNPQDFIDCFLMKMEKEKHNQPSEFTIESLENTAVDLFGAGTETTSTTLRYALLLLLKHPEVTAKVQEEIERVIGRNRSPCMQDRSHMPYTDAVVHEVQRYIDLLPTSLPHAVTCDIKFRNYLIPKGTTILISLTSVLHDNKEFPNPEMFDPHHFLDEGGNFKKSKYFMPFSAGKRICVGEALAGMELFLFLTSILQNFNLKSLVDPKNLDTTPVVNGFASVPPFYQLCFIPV

Cytochrome P450 3A5 = Cytochrome P450 3A5 (Homo sapiens, UniProt P20815); test: Inhibition of CYP3A5 (unknown origin); assay type: ADME
Chain of Cytochrome P450 3A5 (P20815 whole entry): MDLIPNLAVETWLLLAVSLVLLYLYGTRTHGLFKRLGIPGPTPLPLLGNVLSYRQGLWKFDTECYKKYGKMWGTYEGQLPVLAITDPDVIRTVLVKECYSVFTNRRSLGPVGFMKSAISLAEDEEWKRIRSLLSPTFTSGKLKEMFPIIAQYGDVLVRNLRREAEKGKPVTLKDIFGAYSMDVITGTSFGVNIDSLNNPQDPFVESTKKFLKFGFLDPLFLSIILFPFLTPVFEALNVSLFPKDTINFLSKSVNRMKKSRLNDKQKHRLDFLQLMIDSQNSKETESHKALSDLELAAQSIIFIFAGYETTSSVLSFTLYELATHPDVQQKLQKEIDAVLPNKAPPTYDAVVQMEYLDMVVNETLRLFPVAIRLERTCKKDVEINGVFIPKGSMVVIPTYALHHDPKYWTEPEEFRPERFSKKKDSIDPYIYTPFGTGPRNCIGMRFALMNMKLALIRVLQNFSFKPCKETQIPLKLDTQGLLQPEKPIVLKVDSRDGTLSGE

[6] = Microsomal stability in monkey liver microsomes assessed as half life at 50 uM preincubated for 5 mins with NADPH followed by compound addition and measured upto 60 mins by LC-MS/MS analysis; assay type: ADME, Macaca mulatta, Microsome; details: rhesus monkey
[7] = Microsomal stability in dog liver microsomes assessed as half life at 50 uM preincubated for 5 mins with NADPH followed by compound addition and measured upto 60 mins by LC-MS/MS analysis; assay type: ADME, Canis lupus familiaris, Microsome
[8] = Microsomal stability in mouse liver microsomes assessed as half life at 50 uM preincubated for 5 mins with NADPH followed by compound addition and measured upto 60 mins by LC-MS/MS analysis; assay type: ADME, Microsome
[9] = Microsomal stability in monkey liver microsomes assessed as intrinsic clearance at 50 uM preincubated for 5 mins with NADPH followed by compound addition and measured upto 60 mins by LC-MS/MS analysis; assay type: ADME, Macaca mulatta, Microsome; details: rhesus monkey, read-out: CLH
[10] = Tmax in Sprague-Dawley rat at 2 mg/kg, iv measured upto 24 hrs by LC-MS/MS analysis; assay type: ADME, organism-based; details: in vivo
[11] = Half life in Sprague-Dawley rat at 15 mg/kg, ig measured upto 72 hrs by LC-MS/MS analysis; assay type: ADME, organism-based; details: in vivo, po
[12] = Cmax in Sprague-Dawley rat at 15 mg/kg, ig measured upto 72 hrs by LC-MS/MS analysis; assay type: ADME, organism-based; set-up: route […], dose 15 mg/kg, time <=72; details: in vivo, po
[13] = Cmax in Beagle dog at 20 mg/kg, ig measured upto 96 hrs by LC-MS/MS analysis; assay type: ADME, organism-based, Canis lupus familiaris; set-up: route […], dose 20 mg/kg, time <=96; details: in vivo, po
[14] = Oral bioavailability in Sprague-Dawley rat measured upto 72 hrs by LC-MS/MS analysis; assay type: ADME, organism-based; details: in vivo
[15] = Drug metabolism in po dosed Sprague-Dawley rat feces assessed as M2 metabolite formation measured upto 24 hrs by UPLC-TOF-MS/MS analysis; assay type: ADME, organism-based; details: in vivo
[16] = Drug metabolism in po dosed Sprague-Dawley rat bile assessed as M3 metabolite formation measured upto 24 hrs by UPLC-TOF-MS/MS analysis; assay type: ADME, organism-based; details: in vivo
[17] = Drug metabolism in po dosed Sprague-Dawley rat bile assessed as M4 metabolite formation measured upto 24 hrs by UPLC-TOF-MS/MS analysis; assay type: ADME, organism-based; details: in vivo
[18] = Drug metabolism in po dosed Sprague-Dawley rat blood assessed as M1 metabolite formation measured upto 6 hrs by UPLC-TOF-MS/MS analysis; assay type: ADME, organism-based; details: in vivo
[19] = Drug metabolism in po dosed Sprague-Dawley rat blood assessed as M3 metabolite formation measured upto 6 hrs by UPLC-TOF-MS/MS analysis; assay type: ADME, organism-based; details: in vivo
[20] = Toxicity in Beagle dog assessed as maximum toxicity dose; set-up: species or system Canis lupus familiaris; details: in vivo
[21] = Toxicity in Sprague-Dawley rat assessed as appearance of scab on back skin at 25 to 75 mg/kg administered daily for 4 weeks; assay type: organism-based; details: in vivo, 672 h, dose 25-75 mg/kg
[22] = Toxicity in Sprague-Dawley rat assessed as appearance of skin lesions at 25 to 75 mg/kg administered daily for 4 weeks; assay type: organism-based; details: in vivo, 672 h, dose 25-75 mg/kg
[23] = Toxicity in Sprague-Dawley rat assessed as change in biochemical parameters at 25 to 75 mg/kg administered daily for 4 weeks; assay type: organism-based; details: in vivo, 672 h, dose 25-75 mg/kg
[24] = Toxicity in Sprague-Dawley rat assessed as effect on jejunum at 25 to 75 mg/kg administered daily for 4 weeks by histopathological analysis; assay type: organism-based; details: in vivo, 672 h, dose 25-75 mg/kg
[25] = Toxicity in Sprague-Dawley rat assessed as effect on thymus at 25 to 75 mg/kg administered daily for 4 weeks by histopathological analysis; assay type: organism-based; details: in vivo, 672 h, dose 25-75 mg/kg
[26] = Toxicity in Sprague-Dawley rat assessed as effect on bone marrow at 25 to 75 mg/kg administered daily for 4 weeks by histopathological analysis; assay type: organism-based; details: in vivo, 672 h, dose 25-75 mg/kg
KHOS/NP = test: Antitumor activity against human KHOS cells xenografted in dosed BALB/c nude mouse assessed as tumor growth inhibition at 12.5 to 50 mg/kg, ig administered once daily for 22 days; assay type: functional; details: dose 12.5-50 mg/kg, time 22 day
[27] = Toxicity in BALB/c nude mouse xenografted with human 786-0 cells assessed as mortality at 12.5 to 50 mg/kg, ig administered once daily for 22 days; assay type: organism-based; details: in vivo, po, 528 h, dose 12.5-50 mg/kg, time 22 day

SMILES: Cl.Cn1nccc1-c1ccc(C(=O)N[C@@H]2CNCC[C@H]2c2ccc(F)c(F)c2)c(F)c1
- IC50 (HaCaT): 15.2 µM
- IC50 [1]: 0.229 µM
- IC50 [2]: 1.01 µM
- IC50 [3]: > 10 µM
- IC50 [4]: > 10 µM
- IC50 [5]: > 10 µM
- IC50 (U-87 MG): 9.26 µM
- IC50 (NCI-H1975): 7.56 µM
- IC50 (A549): 6.56 µM
- IC50 (HT-29): 20.3 µM
- IC50 (MDA-MB-231): 16.4 µM
- IC50 (PC-3): 8.74 µM
- IC50 (L02): 5.4 µM
- IC50 (Cytochrome P450 2C9): > 100 µM
- IC50 (Cytochrome P450 3A5): > 100 µM
- half-life at 50 µM [6]: 1.7 h
- half-life at 50 µM [7]: 5.6 h
- half-life at 50 µM [8]: 6.73 h
- microsomal CLint at 50 µM [9]: 13.6 µL/min/mg
- Tmax [10]: 6.6 min
- half-life [11]: 8.68 h
- Cmax [12]: 171 ng/mL
- Cmax [13]: 906 ng/mL
- bioavailability [14]: 66.2%
- Drug metabolism [15]: Metabolite_Detected
- Drug metabolism [16]: Metabolite_Detected
- Drug metabolism [17]: Metabolite_Detected
- Drug metabolism [18]: Metabolite_Detected
- Drug metabolism [19]: Metabolite_Detected
- MTD [20]: 100 mg/kg
- Activity [21]: Non-Toxic
- Activity [22]: Non-Toxic
- Activity [23]: Non-Toxic
- Activity [24]: Non-Toxic
- Activity [25]: Non-Toxic
- Activity [26]: Non-Toxic
- TGI (KHOS/NP): 55.7%
- Activity [27]: Non-Toxic
